Key:
[1] = tested on: rat CIA model; assay: CIA model 2 (rat collagen induced arthritis, ankle diameter); assay type: in vivo, Female Lewis rats
Excerpt: Female Lewis rats (n=76) that weighed 165-194 grams (mean approx. 178 g) on arthritis day 0 were obtained from Charles River Laboratories, Inc., Wilmington, Mass., (ref#393739). Animals were identified by a distinct number at the base of the tail delineating group and animal number.
Upon arrival, animals were housed 4/cage in shoe-box polycarbonate cages and acclimated for 8 days prior to being immunized with type II collagen. No concurrent medications were given.
During the acclimation and study periods, animals were housed in a laboratory environment with temperatures ranging 19-25° […]. and relative humidity of 30%-70%. Automatic timers provided 12 h of light and 12 h of dark. Animals were allowed access ad libitum to food and water.
Acclimated female Lewis rats were anesthetized with Isoflurane and receive subcutaneous/intradermal (SC/ID) injections with 300 μL of Freund's Incomplete Adjuvant (Difco, Detroit, Mich.) containing 2 mg/mL bovine type II collagen (Elastin Products, Owensville, Mo.) at the base of the tail and 2 sites on the back on day −9 and on day −3.
Collagen was prepared by making a 4 mg/mL solution in 0.01N Acetic acid. Equal volumes of collagen and Freund's incomplete adjuvant, were emulsified by hand mixing until a bead of this material holds its form when placed in water. Each animal received 300 μL of the mixture on each occasion divided over 3 subcutaneous sites on back.
On study day 1, onset of arthritis occurred and animals were randomized into treatment groups. After randomization, all cages were labelled with protocol number, group number, and animal numbers. Randomization into each group was done after ankle joint swelling was obviously established and there was good evidence of bilateral disease.
Animals with established type II collagen arthritis were treated daily (QD) by the oral (PO) route for 13 days with vehicle (methylcellulose 0.5% (w/v)), or with active compound(s) prepared in methylcellulose, 0.5% (w/v). Oral dosing was initiated on arthritis day 1 and continued daily (QD at 24 h intervals) through day 13. Animals were terminated on arthritis day 14.
The severity of the arthritis was evaluated by measuring the diameter of both ankles on the animals. Caliper measurements of ankles were taken every day beginning on day 0, with a Digitrix II micrometer (Fowler & NSK). Baseline measurements were taken using one ankle with values rounded to one-thousandth of an inch. Measurements were confirmed as clinically normal (0.260-0.264 in) by comparison with historical values for rats based on a range of body weights. Baseline measurements were then applied to both ankles, and these values remain with the animal so long as the ankle was clinically normal with good definition of all the ankle bones and no evidence of inflammation. Animals were terminated on day 14.

[2] = tested on: hepatocytes of dog; assay: In vitro metabolism study in hepatocytes, dog; assay type: in vitro ADME; conditions: dog hepatocyte suspension, 24 h incubation of 100 μM [14C]-Formula II
Method: Hepatocyte stability (Concentrations of the compound according to Formula II and its main metabolites (as % of total radioactivity) after 24 h incubation of 100 μM [^14C]-Compound according to Formula II in hepatocyte suspension of different species)

[3] = Single dose pharmacokinetics in animals, rat; assay type: in vivo, Sprague-Dawley rats; conditions: male, Sprague-Dawley, plasma, after Formula II 45 mg/kg oral, read-out: exposure (expressed as AUC)
Method: Pharmacokinetic studies were performed in various animal species dosed with the compound according to Formula II to determine the exposure to the compound according to Formula I as well as its apparent terminal half life (T1/2), when possible. […]
Temperature was maintained at approximately 22° C., and food and water were provided ad libitum.
The compound according to […] was formulated in 0.5% methylcellulose and dosed orally to 3 or 6 animals as a single esophageal gavage at dose ranging from 15 to 180 mg/kg under a dosing volume of 5 or 10 mL/kg.
The compound according to Formula II was formulated in 0.5% methylcellulose and dosed orally to 3 animals (or 3 mouse/time points) as a single esophageal gavage at dose ranging from 15 to 45 mg/kg under a dosing volume of 5 or 10 mL/kg.
Blood samples were collected over a 24-h period via the jugular vein (dog, minipig), ear blood vessel (rabbit), cardiac puncture (mouse) or retro-orbital sinus (rat) with lithium heparin as anti-coagulant. Whole blood samples were centrifuged and the resulting plasma samples were stored at −20° C. pending analysis.
Plasma concentrations of the compound according to Formula I and of the compound according to Formula II were determined by an LC-MS/MS method with a limit of quantification ≦10.0 ng/mL for both Formula I and Formula II for all species.
Pharmacokinetic parameters were calculated using a statistical analysis package (WinNonLin (Pharsight, Sunnyvale, Calif.: CA 94086, USA).

Which ankle diameter ([1]; group C: Formula II 1 mg/kg PO QD, day 0) does the source give for `O=C(Nc1nc2cccc(-c3ccc(CN4CCS(=O)(=O)CC4)cc3)n2n1)C1CC1` [Formula II, Cyclopropanecarboxylic acid {5-[4-(1,1-dioxo-thiomorpholin-4-ylmethyl)-phenyl]-[1,2,4]triazolo[1,5-a]pyridin-2-yl}-amide] here?
Its ankle diameter is 0.2625 inches.

What about the ankle diameter ([1]; group C: Formula II 1 mg/kg PO QD, day 1) of the same compound?
Its ankle diameter is 0.2716 inches.

What about the ankle diameter ([1]; group C: Formula II 1 mg/kg PO QD, day 2) of the same compound?
Its ankle diameter is 0.2755 inches.

And the ankle diameter ([1]; group C: Formula II 1 mg/kg PO QD, day 3)?
The ankle diameter was 0.2869 inches.

What about the ankle diameter ([1]; group C: Formula II 1 mg/kg PO QD, day 4) of the same compound?
Its ankle diameter is 0.2990 inches.

And the ankle diameter ([1]; group C: Formula II 1 mg/kg PO QD, day 5)?
The ankle diameter was 0.3106 inches.

And the ankle diameter ([1]; group C: Formula II 1 mg/kg PO QD, day 6)?
Its ankle diameter is 0.3231 inches.

And the ankle diameter ([1]; group C: Formula II 1 mg/kg PO QD, day 7)?
Its ankle diameter is 0.3296 inches.

What about the ankle diameter ([1]; group C: Formula II 1 mg/kg PO QD, day 8) of the same compound?
The ankle diameter was 0.3291 inches.

And the ankle diameter ([1]; group C: Formula II 1 mg/kg PO QD, day 9)?
Its ankle diameter is 0.3268 inches.

And the ankle diameter ([1]; group C: Formula II 1 mg/kg PO QD, day 10)?
The ankle diameter was 0.3270 inches.

What about the ankle diameter ([1]; group C: Formula II 1 mg/kg PO QD, day 11) of the same compound?
Its ankle diameter is 0.3185 inches.

And the ankle diameter ([1]; group C: Formula II 1 mg/kg PO QD, day 12)?
Its ankle diameter is 0.3178 inches.

What about the ankle diameter ([1]; group C: Formula II 1 mg/kg PO QD, day 13) of the same compound?
The ankle diameter was 0.3185 inches.

And the ankle diameter ([1]; group C: Formula II 1 mg/kg PO QD, day 14)?
Its ankle diameter is 0.3226 inches.

And the ankle diameter ([1]; group D: Formula II 3 mg/kg PO QD, day 0)?
Its ankle diameter is 0.2623 inches.

And the ankle diameter ([1]; group D: Formula II 3 mg/kg PO QD, day 1)?
Its ankle diameter is 0.2718 inches.

And the ankle diameter ([1]; group D: Formula II 3 mg/kg PO QD, day 2)?
Its ankle diameter is 0.2755 inches.

What about the ankle diameter ([1]; group D: Formula II 3 mg/kg PO QD, day 3) of the same compound?
The ankle diameter was 0.2869 inches.

What about the ankle diameter ([1]; group D: Formula II 3 mg/kg PO QD, day 4) of the same compound?
The ankle diameter was 0.2957 inches.

What about the ankle diameter ([1]; group D: Formula II 3 mg/kg PO QD, day 5) of the same compound?
Its ankle diameter is 0.3058 inches.

What about the ankle diameter ([1]; group D: Formula II 3 mg/kg PO QD, day 6) of the same compound?
Its ankle diameter is 0.3168 inches.

And the ankle diameter ([1]; group D: Formula II 3 mg/kg PO QD, day 7)?
The ankle diameter was 0.3205 inches.

What about the ankle diameter ([1]; group D: Formula II 3 mg/kg PO QD, day 8) of the same compound?
Its ankle diameter is 0.3259 inches.

What about the ankle diameter ([1]; group D: Formula II 3 mg/kg PO QD, day 9) of the same compound?
Its ankle diameter is 0.3216 inches.

What about the ankle diameter ([1]; group D: Formula II 3 mg/kg PO QD, day 10) of the same compound?
The ankle diameter was 0.3197 inches.

And the ankle diameter ([1]; group D: Formula II 3 mg/kg PO QD, day 11)?
Its ankle diameter is 0.3156 inches.

And the ankle diameter ([1]; group D: Formula II 3 mg/kg PO QD, day 12)?
Its ankle diameter is 0.3165 inches.

And the ankle diameter ([1]; group D: Formula II 3 mg/kg PO QD, day 13)?
The ankle diameter was 0.3175 inches.

What about the ankle diameter ([1]; group D: Formula II 3 mg/kg PO QD, day 14) of the same compound?
Its ankle diameter is 0.3174 inches.

And the “significance to vehicle control (ANOVA) in the CIA second model” value ([1]; group E: Formula II 10 mg/kg PO QD)?
The value was “mg/kg (*) (((*) = p ≦ 0.05 ANOVA to vehicle control))”.

And the ankle diameter ([1]; group E: Formula II 10 mg/kg PO QD, day 0)?
Its ankle diameter is 0.2626 inches.

What about the ankle diameter ([1]; group E: Formula II 10 mg/kg PO QD, day 1) of the same compound?
Its ankle diameter is 0.2718 inches.

What about the ankle diameter ([1]; group E: Formula II 10 mg/kg PO QD, day 2) of the same compound?
Its ankle diameter is 0.2744 inches.

What about the ankle diameter ([1]; group E: Formula II 10 mg/kg PO QD, day 3) of the same compound?
The ankle diameter was 0.2808 inches.

And the ankle diameter ([1]; group E: Formula II 10 mg/kg PO QD, day 4)?
The ankle diameter was 0.2850 inches.

What about the ankle diameter ([1]; group E: Formula II 10 mg/kg PO QD, day 5) of the same compound?
Its ankle diameter is 0.2921 inches.

What about the ankle diameter ([1]; group E: Formula II 10 mg/kg PO QD, day 6) of the same compound?
Its ankle diameter is 0.3000 inches.

And the ankle diameter ([1]; group E: Formula II 10 mg/kg PO QD, day 7)?
Its ankle diameter is 0.3031 inches.

What about the ankle diameter ([1]; group E: Formula II 10 mg/kg PO QD, day 8) of the same compound?
Its ankle diameter is 0.3108 inches.

What about the ankle diameter ([1]; group E: Formula II 10 mg/kg PO QD, day 9) of the same compound?
Its ankle diameter is 0.3119 inches.

What about the ankle diameter ([1]; group E: Formula II 10 mg/kg PO QD, day 10) of the same compound?
Its ankle diameter is 0.3122 inches.

And the ankle diameter ([1]; group E: Formula II 10 mg/kg PO QD, day 11)?
The ankle diameter was 0.3090 inches.

What about the ankle diameter ([1]; group E: Formula II 10 mg/kg PO QD, day 12) of the same compound?
The ankle diameter was 0.3070 inches.

What about the ankle diameter ([1]; group E: Formula II 10 mg/kg PO QD, day 13) of the same compound?
Its ankle diameter is 0.3069 inches.

What about the ankle diameter ([1]; group E: Formula II 10 mg/kg PO QD, day 14) of the same compound?
The ankle diameter was 0.3066 inches.

And the “significance to vehicle control (ANOVA) in the CIA second model” value ([1]; group F: Formula II 30 mg/kg PO QD)?
The value was “mg/kg (*) (((*) = p ≦ 0.05 ANOVA to vehicle control))”.

What about the ankle diameter ([1]; group F: Formula II 30 mg/kg PO QD, day 0) of the same compound?
Its ankle diameter is 0.2620 inches.

What about the ankle diameter ([1]; group F: Formula II 30 mg/kg PO QD, day 1) of the same compound?
Its ankle diameter is 0.2718 inches.

And the ankle diameter ([1]; group F: Formula II 30 mg/kg PO QD, day 2)?
Its ankle diameter is 0.2679 inches.

What about the ankle diameter ([1]; group F: Formula II 30 mg/kg PO QD, day 3) of the same compound?
The ankle diameter was 0.2683 inches.

What about the ankle diameter ([1]; group F: Formula II 30 mg/kg PO QD, day 4) of the same compound?
The ankle diameter was 0.2708 inches.

And the ankle diameter ([1]; group F: Formula II 30 mg/kg PO QD, day 5)?
The ankle diameter was 0.2698 inches.

And the ankle diameter ([1]; group F: Formula II 30 mg/kg PO QD, day 6)?
Its ankle diameter is 0.2696 inches.

And the ankle diameter ([1]; group F: Formula II 30 mg/kg PO QD, day 7)?
Its ankle diameter is 0.2706 inches.

What about the ankle diameter ([1]; group F: Formula II 30 mg/kg PO QD, day 8) of the same compound?
Its ankle diameter is 0.2741 inches.

What about the ankle diameter ([1]; group F: Formula II 30 mg/kg PO QD, day 9) of the same compound?
Its ankle diameter is 0.2721 inches.

And the ankle diameter ([1]; group F: Formula II 30 mg/kg PO QD, day 10)?
Its ankle diameter is 0.2706 inches.

And the ankle diameter ([1]; group F: Formula II 30 mg/kg PO QD, day 11)?
Its ankle diameter is 0.2711 inches.

And the ankle diameter ([1]; group F: Formula II 30 mg/kg PO QD, day 12)?
The ankle diameter was 0.2685 inches.

And the ankle diameter ([1]; group F: Formula II 30 mg/kg PO QD, day 13)?
Its ankle diameter is 0.2684 inches.

And the ankle diameter ([1]; group F: Formula II 30 mg/kg PO QD, day 14)?
Its ankle diameter is 0.2679 inches.

And the “In vitro metabolic profile of Formula II (as % of total radioactivity)” value [2]?
The value was “at least 80%”.

What about the “In vitro metabolic profile of Formula II (as % of total radioactivity)” value ([2]; listed as drawing 10) of the same compound?
Its value is 93%.

And the AUC [3]?
The AUC was 33300 ng·h/mL.

Source: US20160296529A1, “AMINOTRIAZOLOPYRIDINE FOR USE IN THE TREATMENT OF INFLAMMATION, AND PHARMACEUTICAL COMPOSITIONS THEREOF” (priority 2012, published 2016)
